Laboratory results as given in patent US10918713B2, “Epitopes from allergen proteins and methods and uses for immune response modulation” (LA JOLLA INSTITUTE FOR ALLERGY AND IMMUNOLOGY, priority 2012, dated 2021).
Values joined by “and” are separate entries in the source; they are usually repeats but may differ in a detail not shown here. Equal entries are not always repeated.

Key:
Assay type in all cases: cell-based, human
[1] = tested on: PBMC from allergic donors; test: IL-5 ELISPOT with extract-stimulated short-term lines; conditions: positive donor/peptide response
Experimental: (§1) Spots were counted by computer-assisted image analysis (Zeiss, KS-ELISPOT reader, Munich, Germany).
(§2) Each assay was performed in triplicate. The level of statistical significance was determined with a Student's t-test using the mean of triplicate values of the response against relevant pools or individual peptides versus the response against the DMSO control.

[2] = tested on: PBMC from allergic donors; test: Dual ELISPOT, total IL-5 and IFN-γ response (SFC); conditions: sum of IFNg and IL-5
Experimental: as §1, §2

[3] = tested on: PBMC from allergic donors; test: IFN-γ ELISPOT with extract-stimulated short-term lines; conditions: positive donor/peptide response
Experimental: as §1, §2

Compound	Response (SFC/10^6) IL-5 ([1]; one donor per table line)	Response (SFC/10^6) Total ([2]; one donor per table line)	Response (SFC/10^6) IFNg ([3]; one donor per table line)	Response (SFC/10^6) IL-5 ([1]; each table line is one donor)	Response (SFC/10^6) Total ([2]; each table line is one donor)	Response (SFC/10^6) IFNg ([3]; each table line is one donor)
CC[C@H](C)[C@H](NC(=O)[C@H](CCC(=O)O)NC(=O)[C@H](CCCNC(=N)N)NC(=O)[C@H](Cc1c[nH]c2ccccc12)NC(=O)[C@H](CCCNC(=N)N)NC(=O)[C@H](Cc1c[nH]cn1)NC(=O)[C@@H](N)CCC(=O)O)C(=O)N[C@@H](Cc1ccc(O)cc1)C(=O)N[C@@H](CC(N)=O)C(=O)N[C@@H](CCSC)C(=O)N[C@H](C(=O)N[C@@H](CCCCN)C(=O)N[C@@H](Cc1ccccc1)C(=O)N[C@@H](CCCNC(=N)N)C(=O)N[C@@H](CCSC)C(=O)O)C(C)C [3324.0986]	300 SFC/10^6 and 80 SFC/10^6 and 402 SFC/10^6	300 SFC/10^6 and 1007 SFC/10^6 and 80 SFC/10^6 and 402 SFC/10^6	1007 SFC/10^6	–	–	–
3324.0099 (MKNIFMLTLFILIIT)	–	–	–	57 SFC/10^6	57 SFC/10^6 and 77 SFC/10^6	77 SFC/10^6
CC(C)C[C@H](NC(=O)[C@H](Cc1ccc(O)cc1)NC(=O)[C@H](C)NC(=O)[C@H](CO)NC(=O)[C@H](CCC(=O)O)NC(=O)[C@@H](NC(=O)[C@H](C)NC(=O)[C@H](C)NC(=O)[C@@H](NC(=O)CNC(=O)[C@@H](N)CO)C(C)C)[C@@H](C)O)C(=O)N[C@@H](C)C(=O)N[C@@H](Cc1ccc(O)cc1)C(=O)N[C@@H](CCCNC(=N)N)C(=O)N[C@@H](CC(N)=O)C(=O)O [3324.0829]	347 SFC/10^6 and 167 SFC/10^6	687 SFC/10^6 and 403 SFC/10^6	340 SFC/10^6 and 237 SFC/10^6	–	–	–
CSCC[C@H](NC(=O)[C@@H]1CCCN1C(=O)CNC(=O)[C@@H](NC(=O)[C@H](CC(C)C)NC(=O)[C@@H]1CCCN1C(=O)[C@H](CCCCN)NC(=O)[C@H](C)NC(=O)[C@H](CO)NC(=O)[C@H](CCCCN)NC(=O)[C@@H](NC(=O)[C@H](CCC(=O)O)NC(=O)[C@H](Cc1c[nH]c2ccccc12)NC(=O)[C@@H](N)CC(C)C)C(C)C)[C@@H](C)O)C(=O)N[C@@H](CC(N)=O)C(=O)O [3337.0031]	–	–	–	1010 SFC/10^6	90 SFC/10^6 and 1713 SFC/10^6	90 SFC/10^6 and 703 SFC/10^6
3324.0102 (DKWLDAKSTWYGKPT)	147 SFC/10^6	593 SFC/10^6 and 233 SFC/10^6 and 123 SFC/10^6	447 SFC/10^6 and 233 SFC/10^6 and 123 SFC/10^6	–	–	–
CC[C@H](C)[C@H](NC(=O)[C@H](Cc1ccccc1)NC(=O)[C@H](CCCCN)NC(=O)[C@H](Cc1ccc(O)cc1)NC(=O)[C@@H](NC(=O)[C@H](CCC(=O)O)NC(=O)[C@H](Cc1ccc(O)cc1)NC(=O)[C@H](C)NC(=O)CN)[C@@H](C)O)C(=O)N1CCC[C@H]1C(=O)N[C@@H](CO)C(=O)N[C@@H](CC(C)C)C(=O)N[C@@H](CCC(=O)O)C(=O)N[C@@H](C)C(=O)N[C@@H](C)C(=O)O [3324.1433]	–	–	–	247 SFC/10^6	247 SFC/10^6 and 208 SFC/10^6 and 153 SFC/10^6	208 SFC/10^6 and 153 SFC/10^6
CC[C@H](C)[C@H](NC(=O)[C@H](CCCCN)NC(=O)[C@H](CCC(=O)O)NC(=O)[C@@H](NC(=O)[C@@H](N)CC(C)C)[C@@H](C)CC)C(=O)N[C@@H](CC(N)=O)C(=O)N[C@@H](C)C(=O)NCC(=O)N[C@@H](Cc1ccccc1)C(=O)N[C@@H](CCCCN)C(=O)N[C@@H](C)C(=O)N[C@@H](C)C(=O)N[C@H](C(=O)N[C@@H](C)C(=O)N[C@@H](C)C(=O)O)C(C)C [3324.1175]	–	–	–	900 SFC/10^6 and 1202 SFC/10^6 and 263 SFC/10^6	1860 SFC/10^6 and 1202 SFC/10^6 and 263 SFC/10^6	960 SFC/10^6
CC(C)[C@H](NC(=O)[C@H](C)NC(=O)[C@H](C)NC(=O)[C@H](CCCCN)NC(=O)[C@@H](N)Cc1ccccc1)C(=O)N[C@@H](C)C(=O)N[C@@H](C)C(=O)N[C@@H](C)C(=O)N[C@@H](C)C(=O)NCC(=O)N[C@@H](C)C(=O)N1CCC[C@H]1C(=O)N1CCC[C@H]1C(=O)N[C@@H](C)C(=O)N[C@@H](CC(=O)O)C(=O)O [3324.1575]	–	–	–	138 SFC/10^6 and 327 SFC/10^6	138 SFC/10^6 and 327 SFC/10^6 and 230 SFC/10^6	230 SFC/10^6
CC(C)[C@H](NC(=O)[C@H](Cc1ccccc1)NC(=O)[C@H](CO)NC(=O)[C@H](CC(=O)O)NC(=O)[C@H](Cc1ccccc1)NC(=O)[C@H](CCCCN)NC(=O)[C@H](C)NC(=O)[C@H](CCC(=O)O)NC(=O)[C@@H]1CCCN1C(=O)[C@@H](NC(=O)[C@H](C)N)[C@@H](C)O)C(=O)N[C@@H](C)C(=O)N[C@@H](C)C(=O)N[C@@H](Cc1ccccc1)C(=O)N[C@H](C(=O)O)[C@@H](C)O [3324.1570]	–	–	–	238 SFC/10^6	238 SFC/10^6 and 80 SFC/10^6 and 117 SFC/10^6	80 SFC/10^6 and 117 SFC/10^6
CC[C@H](C)[C@H](NC(=O)[C@@H](NC(=O)[C@H](CO)NC(=O)[C@H](C)N)C(C)C)C(=O)N1CCC[C@H]1C(=O)N1CCC[C@H]1C(=O)N[C@@H](C)C(=O)N[C@@H](CCCNC(=N)N)C(=O)N[C@@H](CC(C)C)C(=O)N[C@@H](Cc1ccccc1)C(=O)N[C@@H](CCCCN)C(=O)N[C@@H](C)C(=O)N[C@@H](Cc1ccccc1)C(=O)N[C@H](C(=O)N[C@@H](CC(C)C)C(=O)O)C(C)C [3324.1587]	203 SFC/10^6 and 97 SFC/10^6 and 100 SFC/10^6	273 SFC/10^6 and 330 SFC/10^6 and 97 SFC/10^6 and 100 SFC/10^6	273 SFC/10^6 and 127 SFC/10^6	–	–	–
3324.0836 (EIDLRQMRTVTPIRM)	613 SFC/10^6	733 SFC/10^6	120 SFC/10^6	–	–	–
